Data: paper PMC2862277 (The Journal of neuroscience : the official journal of the …, 2010)

Target: NR1/NR2C (Rattus norvegicus, UniProt P35439+Q00961)
Assay: Two electrode voltage clamp recording from Xenopus laevis oocytes
Type: cell-based
Settings: read-out: EC50 for glutamate

NR1/NR2C, sequence (Q00961 20-1237, other chains not shown): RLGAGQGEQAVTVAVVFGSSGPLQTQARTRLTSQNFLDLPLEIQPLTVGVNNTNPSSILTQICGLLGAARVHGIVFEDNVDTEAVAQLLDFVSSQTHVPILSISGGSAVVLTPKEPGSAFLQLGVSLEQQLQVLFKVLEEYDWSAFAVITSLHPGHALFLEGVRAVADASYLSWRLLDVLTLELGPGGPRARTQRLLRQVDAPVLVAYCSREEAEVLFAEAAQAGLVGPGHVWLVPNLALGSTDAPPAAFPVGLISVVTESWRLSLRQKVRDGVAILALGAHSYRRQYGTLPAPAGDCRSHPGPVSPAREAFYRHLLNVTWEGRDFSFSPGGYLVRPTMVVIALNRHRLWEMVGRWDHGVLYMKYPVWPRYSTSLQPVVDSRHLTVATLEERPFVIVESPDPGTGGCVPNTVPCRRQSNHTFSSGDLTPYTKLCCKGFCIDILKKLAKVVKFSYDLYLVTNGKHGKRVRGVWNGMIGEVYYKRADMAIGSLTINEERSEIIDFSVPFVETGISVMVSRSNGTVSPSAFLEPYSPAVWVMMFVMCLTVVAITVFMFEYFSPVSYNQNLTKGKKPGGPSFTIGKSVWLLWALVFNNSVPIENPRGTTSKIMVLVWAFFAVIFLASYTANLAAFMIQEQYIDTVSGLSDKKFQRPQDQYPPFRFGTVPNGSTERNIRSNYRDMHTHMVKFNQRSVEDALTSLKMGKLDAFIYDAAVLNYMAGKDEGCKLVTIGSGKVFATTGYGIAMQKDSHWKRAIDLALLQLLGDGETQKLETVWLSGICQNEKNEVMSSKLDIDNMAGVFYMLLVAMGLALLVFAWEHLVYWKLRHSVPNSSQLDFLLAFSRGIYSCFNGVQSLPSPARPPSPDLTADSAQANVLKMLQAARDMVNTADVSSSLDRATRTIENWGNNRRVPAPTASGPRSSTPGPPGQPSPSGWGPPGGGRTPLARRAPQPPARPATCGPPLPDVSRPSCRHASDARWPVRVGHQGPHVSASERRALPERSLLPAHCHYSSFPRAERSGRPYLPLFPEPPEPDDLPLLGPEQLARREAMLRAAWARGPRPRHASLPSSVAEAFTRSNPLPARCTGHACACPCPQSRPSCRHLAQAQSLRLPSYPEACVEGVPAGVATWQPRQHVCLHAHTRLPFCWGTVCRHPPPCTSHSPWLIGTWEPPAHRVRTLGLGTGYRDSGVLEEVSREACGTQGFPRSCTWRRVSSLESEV

EC50: 420 ± 40 nM
SMILES: N[C@@H](CCC(=O)O)C(=O)O [glutamate]
